Calls of active or inactive are those of the source. The calls are words filed in the database; no cut-off is given here.
How the values were obtained:
[1] = test system: U-937; assay: Antiproliferative activity against human U937 cells after 24 hrs by WST-8 assay; type: functional, cell-based; settings: U-937, 24 h
[2] = test system: U-937; assay: Antiproliferative activity against human U937 cells after 72 hrs by WST-8 assay; type: functional, cell-based; settings: U-937, 72 h
[3] = test system: U-937; assay: Antiproliferative activity against human U937 cells after 48 hrs by WST-8 assay; type: functional, cell-based; settings: U-937, 48 h
[4] = test system: HT-1080; assay: Inhibition of invasion of human HT1080 cells at 30 uM after 24 hrs; type: functional; settings: HT-1080, 24 h
[5] = test system: HT-1080; assay: Antiproliferative activity against human HT1080 cells at 3 uM after 72 hrs by MTT assay; type: functional; settings: HT-1080, 72 h
[6] = test system: HT-1080; assay: Antiproliferative activity against human HT1080 cells at 1 uM after 48 hrs by calcein-AM assay; type: functional; settings: HT-1080, 48 h
[7] = test system: HT-1080; assay: Antiproliferative activity against human HT1080 cells at 30 uM after 72 hrs by MTT assay; type: functional; settings: HT-1080, 72 h
[8] = test system: HT-1080; assay: Inhibition of invasion of human HT1080 cells at 3 uM after 24 hrs; type: functional; settings: HT-1080, 24 h
[9] = test system: HT-1080; assay: Antiproliferative activity against human HT1080 cells at 1 uM after 72 hrs by calcein-AM assay; type: functional; settings: HT-1080, 72 h
[10] = test system: HT-1080; assay: Antiproliferative activity against human HT1080 cells at 3 uM after 48 hrs by calcein-AM assay; type: functional; settings: HT-1080, 48 h
[11] = test system: HT-1080; assay: Antiproliferative activity against human HT1080 cells at 30 uM after 48 hrs by calcein-AM assay; type: functional; settings: HT-1080, 48 h
[12] = test system: HT-1080; assay: Inhibition of invasion of human HT1080 cells at 1 uM after 24 hrs; type: functional; settings: HT-1080, 24 h
[13] = test system: HT-1080; assay: Antiproliferative activity against human HT1080 cells at 30 uM after 48 hrs by MTT assay; type: functional; settings: HT-1080, 48 h
[14] = test system: HT-1080; assay: Antiproliferative activity against human HT1080 cells at 3 uM after 48 hrs by MTT assay; type: functional; settings: HT-1080, 48 h
[15] = test system: HT-1080; assay: Antiproliferative activity against human HT1080 cells at 1 uM after 72 hrs by MTT assay; type: functional; settings: HT-1080, 72 h
[16] = test system: HT-1080; assay: Antiproliferative activity against human HT1080 cells at 3 uM after 24 hrs by calcein-AM assay; type: functional; settings: HT-1080, 24 h
[17] = test system: HT-1080; assay: Antiproliferative activity against human HT1080 cells at 10 uM after 48 hrs by MTT assay; type: functional; settings: HT-1080, 48 h
[18] = test system: HT-1080; assay: Antiproliferative activity against human HT1080 cells at 30 uM after 24 hrs by calcein-AM assay; type: functional; settings: HT-1080, 24 h
[19] = test system: HT-1080; assay: Antiproliferative activity against human HT1080 cells at 10 uM after 48 hrs by calcein-AM assay; type: functional; settings: HT-1080, 48 h
[20] = test system: HT-1080; assay: Inhibition of invasion of human HT1080 cells at 10 uM after 24 hrs; type: functional; settings: HT-1080, 24 h
[21] = test system: HT-1080; assay: Antiproliferative activity against human HT1080 cells at 3 uM after 24 hrs by MTT assay; type: functional; settings: HT-1080, 24 h
[22] = test system: HT-1080; assay: Antiproliferative activity against human HT1080 cells at 10 uM after 24 hrs by MTT assay; type: functional; settings: HT-1080, 24 h
[23] = test system: HT-1080; assay: Antiproliferative activity against human HT1080 cells at 10 uM after 24 hrs by calcein-AM assay; type: functional; settings: HT-1080, 24 h
[24] = test system: HT-1080; assay: Antiproliferative activity against human HT1080 cells at 10 uM after 72 hrs by MTT assay; type: functional; settings: HT-1080, 72 h
[25] = test system: HT-1080; assay: Antiproliferative activity against human HT1080 cells at 30 uM after 24 hrs by MTT assay; type: functional; settings: HT-1080, 24 h
[26] = test system: HT-1080; assay: Antiproliferative activity against human HT1080 cells at 1 uM after 24 hrs by MTT assay; type: functional; settings: HT-1080, 24 h
[27] = test system: HT-1080; assay: Antiproliferative activity against human HT1080 cells at 3 uM after 72 hrs by calcein-AM assay; type: functional; settings: HT-1080, 72 h
[28] = test system: HT-1080; assay: Antiproliferative activity against human HT1080 cells at 30 uM after 72 hrs by calcein-AM assay; type: functional; settings: HT-1080, 72 h
[29] = test system: HT-1080; assay: Antiproliferative activity against human HT1080 cells at 10 uM after 72 hrs by calcein-AM assay; type: functional; settings: HT-1080, 72 h
[30] = test system: HT-1080; assay: Antiproliferative activity against human HT1080 cells at 1 uM after 48 hrs by MTT assay; type: functional; settings: HT-1080, 48 h
[31] = test system: HT-1080; assay: Antiproliferative activity against human HT1080 cells at 1 uM after 24 hrs by calcein-AM assay; type: functional; settings: HT-1080, 24 h
[32] = test system: HT-1080; assay: Inhibition of proMMP9 production in human HT1080 cells by gelatin zymography analysis; type: functional, cell-based
[33] = test system: HT-1080; assay: Inhibition of proMMP2 production in human HT1080 cells by gelatin zymography analysis; type: functional, cell-based

Row | SMILES | IC50 [1] | IC50 [2] | IC50 [3] | inhibition at 30 µM [4] | inhibition at 3 µM [5] | inhibition at 1 µM [6] | inhibition at 30 µM [7] | inhibition at 3 µM [8] | inhibition at 1 µM [9] | inhibition at 3 µM [10] | inhibition at 30 µM [11] | inhibition at 1 µM [12] | inhibition at 30 µM [13] | inhibition at 3 µM [14] | inhibition at 1 µM [15] | inhibition at 3 µM [16] | inhibition at 10 µM [17] | inhibition at 30 µM [18] | inhibition at 10 µM [19] | inhibition at 10 µM [20] | also measured
1 | Oc1ccc2c(c1)OC[C@H]1c3cc4c(cc3O[C@@H]21)OCO4 [MAACKIAIN] | > 100 µM | > 100 µM | > 100 µM | – | – | – | – | – | – | – | – | – | – | – | – | – | – | – | – | – | –
2 | O=c1c(-c2ccc(O)c(O)c2)coc2cc(O)cc(O)c12 [OROBOL] | 73 µM | > 100 µM | > 100 µM | – | – | – | – | – | – | – | – | – | – | – | – | – | – | – | – | – | –
3 | CC(=O)O[C@H]1C(=O)[C@@]2(C)[C@H]([C@H](OC(=O)c3ccccc3)[C@]3(O)C[C@H](OC(=O)[C@H](O)[C@@H](NC(=O)c4ccccc4)c4ccccc4)C(C)=C1C3(C)C)[C@]1(OC(C)=O)CO[C@@H]1C[C@@H]2O [PACLITAXEL] | – | – | – | 89.2% | 79.8% | 46.2% | 79.9% | 79.8% | 59.8% | 64.4% | 70% | 50.5% | 50.3% | 48.7% | 65.6% | 10.8% | 50% | 10.3% | 70.9% | 87.8% | inhibition at 3 µM [21]: 12.6%; inhibition at 10 µM [22]: 12.2%; inhibition at 10 µM [23]: 12.4%; inhibition at 10 µM [24]: 81.4%; inhibition at 30 µM [25]: 10.3%; inhibition at 1 µM [26]: 4.7%; inhibition at 3 µM [27]: 87%; inhibition at 30 µM [28]: 87.7%; inhibition at 10 µM [29]: 87.6%; inhibition at 1 µM [30]: 43.7%; inhibition at 1 µM [31]: -0.5%
4 | COc1ccc2c(c1)OC[C@H]1c3cc4c(cc3O[C@@H]21)OCO4 [PTEROCARPIN] | > 100 µM | > 100 µM | > 100 µM | – | – | – | – | – | – | – | – | – | – | – | – | – | – | – | – | – | –
5 | C=C(C)[C@H]1Cc2c(ccc3c2O[C@@H]2COc4cc(OC)c(OC)cc4[C@]2(O)C3=O)O1 [ROTENOLONE] | 3.6 µM | 0.09 µM | 0.07 µM | 54.6% | 98.7% | 52.2% | 98.5% | 30.6% | 97.3% | 50.6% | 53.6% | 3.3% | 96% | 96.9% | 98.3% | 21.8% | 96.4% | 29.2% | 47.6% | 64.9% | Activity [32]: Active; Activity [33]: Active; inhibition at 3 µM [21]: 0.8%; inhibition at 10 µM [22]: 2.4%; inhibition at 10 µM [23]: 24.4%; inhibition at 10 µM [24]: 98.3%; inhibition at 30 µM [25]: 5.5%; inhibition at 1 µM [26]: -2%; inhibition at 3 µM [27]: 97.1%; inhibition at 30 µM [28]: 95%; inhibition at 10 µM [29]: 94.9%; inhibition at 1 µM [30]: 95.8%; inhibition at 1 µM [31]: 17.2%
6 | C=C(C)[C@H]1Cc2c(ccc3c2O[C@@H]2COc4cc(OC)c(OC)cc4[C@@H]2C3=O)O1 [ROTENONE] | 13 µM | 0.07 µM | 0.2 µM | 51.6% | 98.5% | 35.2% | 97.8% | 19.6% | 97.4% | 44.2% | 40.4% | 0.6% | 96.9% | 97.5% | 98.6% | 17.1% | 97.3% | 26.8% | 51% | 53.7% | Activity [32]: Active; Activity [33]: Active; inhibition at 3 µM [21]: 9.9%; inhibition at 10 µM [22]: 9.5%; inhibition at 10 µM [23]: 23%; inhibition at 10 µM [24]: 98.4%; inhibition at 30 µM [25]: 0.7%; inhibition at 1 µM [26]: 9.4%; inhibition at 3 µM [27]: 95.3%; inhibition at 30 µM [28]: 93.4%; inhibition at 10 µM [29]: 91.4%; inhibition at 1 µM [30]: 95.9%; inhibition at 1 µM [31]: 16.2%
7 | COc1cc2c(cc1OC)[C@@H]1COc3cc(O)ccc3[C@@H]1O2 [SECUNDIFLOROL I] | > 100 µM | > 100 µM | > 100 µM | – | – | – | – | – | – | – | – | – | – | – | – | – | – | – | – | – | –
8 | CC(C)=CCc1c(O)cc2occ(-c3ccc(O)cc3)c(=O)c2c1O [WIGHTEONE] | 28 µM | 32 µM | 35 µM | – | – | – | – | – | – | – | – | – | – | – | – | – | – | – | – | – | –
